# Assay results from US20100197800A1, “Treatment and/or Prevention of Presbycusis by Modulation of Metabotropic Glutamate Receptor 7” (priority 2007, published 2010).
# Read-outs that look alike come from different tables or passages of the source.
# Assays:
# mGluR7 [1] = biological target: T1, mGluR7 (Homo sapiens, UniProt Q14831); conditions: higher for mGluR7; cited from earlier work
# rat mGluR7 [2] = biological target: T2, rat mGluR7 (Rattus norvegicus, UniProt P35400); conditions: CHO cells expressing rat mGluR7; read-out: IC50, inhibition of L-AP4-induced inhibition of forskolin-stimulated cAMP accumulation; cited from earlier work
# T2 construct: host or cells: CHO cells, transfected
# rat mGluR7 [3] = biological target: T2, rat mGluR7; conditions: cited from earlier work
# mGluR7 [4] = biological target: T1, mGluR7; set-up: host or cells: CHO cells, transfected; conditions: CHO cells coexpressing human mGluR7 with G15; cited from earlier work
# human mGluR7b = human mGluR7b (Homo sapiens, UniProt Q14831); conditions: agonist; cited from earlier work
# mGluR4a = mGluR4a (Homo sapiens, UniProt Q14833); conditions: agonist; cited from earlier work
# mGluR2 = mGluR2 (Homo sapiens, UniProt Q14416); conditions: concentrations of at least 1 μM; cited from earlier work
# mGluR8 [5] = biological target: T3, mGluR8 (Homo sapiens, UniProt O00222); conditions: concentrations of at least 1 μM; cited from earlier work
# mGluR7 [6] = biological target: T1, mGluR7; conditions: cited from earlier work
# mGluR1 = mGluR1 (Homo sapiens, UniProt Q13255); conditions: concentrations of at least 1 μM; cited from earlier work
# mGluR7 [7] = biological target: T1, mGluR7; set-up: host or cells: CHO cells (printed only for the inverse-agonism experiment, A12); conditions: CHO cells expressing mGluR7; cited from earlier work
# mGluR5 = mGluR5 (Homo sapiens, UniProt P41594); conditions: concentrations of at least 1 μM; cited from earlier work
# mGluR7 [8] = biological target: T1, mGluR7; conditions: cited from earlier work; remark: listed apart in the source
# mGluR3 = mGluR3 (Homo sapiens, UniProt Q14832); conditions: concentrations of at least 1 μM; cited from earlier work
# mGluR4 = mGluR4 (Homo sapiens, UniProt Q14833); conditions: concentrations of at least 1 μM; cited from earlier work
# mGluR7 [9] = biological target: T1, mGluR7; conditions: antagonist; read-out: 1050 values on inhibition of glutamate stimulated inositol phosphate accumulation, mGluR7; cited from earlier work
# mGluR8 [10] = biological target: T3, mGluR8; conditions: antagonist; read-out: 1050 values on inhibition of glutamate stimulated inositol phosphate accumulation, mGluR8; cited from earlier work
# mGluR6 = mGluR6 (Homo sapiens, UniProt O15303); conditions: antagonist; read-out: 1050 values on inhibition of glutamate stimulated inositol phosphate accumulation, mGluR6; cited from earlier work
# mGluR7 [11] = biological target: T1, mGluR7; conditions: through an allosteric site; cited from earlier work
# presbycusis = assay: treatment of patients with presbycusis, hearing threshold; assay type: in vivo, human; conditions: for hearing threshold left ear / hearing threshold right ear: after 14 days
# Description: A person presents with symptoms of presbycusis, including moderate loss of higher frequency (above 2000 Hz) hearing (50 decibel threshold) in both ears. The person is administered two drops per ear twice daily of a topical otic formulation comprising 10 ug/ml of AMN082 in a phosphate-buffered saline and further comprising 0.25% the carboxyvinyl water swellable gelling agent, Carbopol 934P; i.e., about 1 ug nGluR7 agonist per ear per dosing. After 14 days, the patient is tested by an audiologist. The threshold is lowered to 35 decibels right ear and 40 decibels left ear.
# A person presents with symptoms of presbycusis, including loss of moderately high frequency (above 1000 Hz) hearing (40 decibel threshold right ear and 35 decibel threshold left ear). The person is administered an oral formulation 4 times per day comprising 2 ug per dose of AMN082. The extended release capsule comprises a matrix of 10% by weight hydroxypropyl methylcellulose (e.g., Methocel®; Dow Chemical Company, U.S.A), and 50% by weight of a cornstarch filler. After 14 days, the threshold is lowered to 35 decibels right ear and 25 decibels left ear.
# A person presents with symptoms of presbycusis, including loss of hearing in the 500 to above 2000 Hz range. The person is implanted with an Alset® osmotic pump adapted for cochlear delivery; see e.g., Richardson, R. T., Noushi, F., O'Leary, S. Inner ear therapy for neural preservation. AUDIOLOGY AND NEURO-OTOLOGY 2006; 11(6): 343-356. The pump is supplied with an aqueous sterile solution comprising AMN082. The pump delivers a dose of 10 ug/hour of the mGluR7 modulator. After 10 days, hearing is improved in both ears.
# mGluR7 [12] = biological target: T4, mGluR7 (Mus musculus, UniProt Q68ED2); conditions: cited from earlier work
# T4 construct: host or cells: whole animals (in vivo), endogenous receptor
# [13] = Example 3: person, topical otic drops twice daily, baseline 50 decibel, above 2000 Hz
# T4 sequence (Q68ED2 35-915): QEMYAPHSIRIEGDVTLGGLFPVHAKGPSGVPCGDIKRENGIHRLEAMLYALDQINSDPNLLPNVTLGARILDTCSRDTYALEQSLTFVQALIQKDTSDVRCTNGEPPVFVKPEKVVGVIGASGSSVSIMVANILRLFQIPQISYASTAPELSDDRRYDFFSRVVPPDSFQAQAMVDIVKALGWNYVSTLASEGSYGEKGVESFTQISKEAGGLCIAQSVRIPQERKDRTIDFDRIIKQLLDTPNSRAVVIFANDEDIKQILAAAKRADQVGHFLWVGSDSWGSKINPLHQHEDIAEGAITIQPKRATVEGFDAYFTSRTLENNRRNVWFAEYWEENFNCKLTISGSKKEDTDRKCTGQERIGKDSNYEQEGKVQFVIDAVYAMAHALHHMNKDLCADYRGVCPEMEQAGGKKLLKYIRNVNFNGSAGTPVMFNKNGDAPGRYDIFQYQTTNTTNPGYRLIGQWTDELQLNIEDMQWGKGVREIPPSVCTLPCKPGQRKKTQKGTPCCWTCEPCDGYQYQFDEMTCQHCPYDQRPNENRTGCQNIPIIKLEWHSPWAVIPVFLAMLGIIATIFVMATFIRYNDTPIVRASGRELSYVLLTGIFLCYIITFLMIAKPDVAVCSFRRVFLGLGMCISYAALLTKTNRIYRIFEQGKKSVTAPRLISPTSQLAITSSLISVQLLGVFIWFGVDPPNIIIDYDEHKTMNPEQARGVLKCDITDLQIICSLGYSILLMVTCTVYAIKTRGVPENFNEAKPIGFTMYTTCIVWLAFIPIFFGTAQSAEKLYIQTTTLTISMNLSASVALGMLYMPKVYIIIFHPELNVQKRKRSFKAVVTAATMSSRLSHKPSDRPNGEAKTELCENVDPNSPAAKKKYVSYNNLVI
# T2 sequence (P35400 35-915): as the sequence (Q68ED2 35-915) above, with N420H, P486S counted along it
# T1 sequence (Q14831 35-915): as the sequence (Q68ED2 35-915) above, with T454S, P486A, N544D counted along it
# T3 sequence (O00222 34-908, species assumed): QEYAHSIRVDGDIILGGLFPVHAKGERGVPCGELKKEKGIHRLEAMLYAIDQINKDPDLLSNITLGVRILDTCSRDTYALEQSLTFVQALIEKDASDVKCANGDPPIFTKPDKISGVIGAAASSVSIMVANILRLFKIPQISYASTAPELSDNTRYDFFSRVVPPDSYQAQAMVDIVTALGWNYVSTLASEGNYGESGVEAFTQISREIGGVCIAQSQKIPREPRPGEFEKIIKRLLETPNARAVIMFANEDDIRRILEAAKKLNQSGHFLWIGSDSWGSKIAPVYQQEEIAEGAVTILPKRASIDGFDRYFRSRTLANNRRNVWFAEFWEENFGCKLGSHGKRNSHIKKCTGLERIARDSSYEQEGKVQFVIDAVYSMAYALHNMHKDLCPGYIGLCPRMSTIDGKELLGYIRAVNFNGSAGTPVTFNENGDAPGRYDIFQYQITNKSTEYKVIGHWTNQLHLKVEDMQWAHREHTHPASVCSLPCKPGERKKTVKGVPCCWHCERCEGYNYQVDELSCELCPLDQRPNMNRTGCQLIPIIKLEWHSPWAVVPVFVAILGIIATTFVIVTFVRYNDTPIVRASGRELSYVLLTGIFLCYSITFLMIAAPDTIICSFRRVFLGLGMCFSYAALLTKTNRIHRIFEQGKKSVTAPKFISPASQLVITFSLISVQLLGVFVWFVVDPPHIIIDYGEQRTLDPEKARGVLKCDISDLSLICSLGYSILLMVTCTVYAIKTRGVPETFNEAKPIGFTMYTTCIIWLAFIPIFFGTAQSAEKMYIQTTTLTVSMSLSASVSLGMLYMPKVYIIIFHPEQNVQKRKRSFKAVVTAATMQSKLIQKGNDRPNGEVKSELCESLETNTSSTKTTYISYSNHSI
# mGluR3, sequence (Q14832 23-879): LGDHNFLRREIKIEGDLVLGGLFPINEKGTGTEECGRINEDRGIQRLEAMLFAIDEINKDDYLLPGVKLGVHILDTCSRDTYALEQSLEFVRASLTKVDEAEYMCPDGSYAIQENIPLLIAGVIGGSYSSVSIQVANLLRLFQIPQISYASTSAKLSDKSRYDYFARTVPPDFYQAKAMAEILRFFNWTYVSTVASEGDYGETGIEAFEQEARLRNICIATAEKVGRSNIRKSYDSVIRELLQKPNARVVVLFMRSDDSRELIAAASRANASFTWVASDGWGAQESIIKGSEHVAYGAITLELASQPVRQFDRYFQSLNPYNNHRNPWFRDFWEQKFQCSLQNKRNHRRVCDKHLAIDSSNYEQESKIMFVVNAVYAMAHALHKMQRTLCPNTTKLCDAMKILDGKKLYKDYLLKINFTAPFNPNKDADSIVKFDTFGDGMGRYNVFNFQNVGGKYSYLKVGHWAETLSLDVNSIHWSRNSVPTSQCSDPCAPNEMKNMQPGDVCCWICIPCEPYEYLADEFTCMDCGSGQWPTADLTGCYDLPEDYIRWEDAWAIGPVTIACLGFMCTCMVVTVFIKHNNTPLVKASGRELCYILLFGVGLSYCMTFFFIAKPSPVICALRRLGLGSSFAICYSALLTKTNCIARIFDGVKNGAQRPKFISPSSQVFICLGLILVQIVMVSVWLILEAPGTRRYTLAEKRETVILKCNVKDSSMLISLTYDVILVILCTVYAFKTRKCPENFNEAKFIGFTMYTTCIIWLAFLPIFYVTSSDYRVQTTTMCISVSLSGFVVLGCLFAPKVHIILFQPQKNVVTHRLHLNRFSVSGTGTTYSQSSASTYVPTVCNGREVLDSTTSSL
# mGluR5, sequence (P41594 21-1212): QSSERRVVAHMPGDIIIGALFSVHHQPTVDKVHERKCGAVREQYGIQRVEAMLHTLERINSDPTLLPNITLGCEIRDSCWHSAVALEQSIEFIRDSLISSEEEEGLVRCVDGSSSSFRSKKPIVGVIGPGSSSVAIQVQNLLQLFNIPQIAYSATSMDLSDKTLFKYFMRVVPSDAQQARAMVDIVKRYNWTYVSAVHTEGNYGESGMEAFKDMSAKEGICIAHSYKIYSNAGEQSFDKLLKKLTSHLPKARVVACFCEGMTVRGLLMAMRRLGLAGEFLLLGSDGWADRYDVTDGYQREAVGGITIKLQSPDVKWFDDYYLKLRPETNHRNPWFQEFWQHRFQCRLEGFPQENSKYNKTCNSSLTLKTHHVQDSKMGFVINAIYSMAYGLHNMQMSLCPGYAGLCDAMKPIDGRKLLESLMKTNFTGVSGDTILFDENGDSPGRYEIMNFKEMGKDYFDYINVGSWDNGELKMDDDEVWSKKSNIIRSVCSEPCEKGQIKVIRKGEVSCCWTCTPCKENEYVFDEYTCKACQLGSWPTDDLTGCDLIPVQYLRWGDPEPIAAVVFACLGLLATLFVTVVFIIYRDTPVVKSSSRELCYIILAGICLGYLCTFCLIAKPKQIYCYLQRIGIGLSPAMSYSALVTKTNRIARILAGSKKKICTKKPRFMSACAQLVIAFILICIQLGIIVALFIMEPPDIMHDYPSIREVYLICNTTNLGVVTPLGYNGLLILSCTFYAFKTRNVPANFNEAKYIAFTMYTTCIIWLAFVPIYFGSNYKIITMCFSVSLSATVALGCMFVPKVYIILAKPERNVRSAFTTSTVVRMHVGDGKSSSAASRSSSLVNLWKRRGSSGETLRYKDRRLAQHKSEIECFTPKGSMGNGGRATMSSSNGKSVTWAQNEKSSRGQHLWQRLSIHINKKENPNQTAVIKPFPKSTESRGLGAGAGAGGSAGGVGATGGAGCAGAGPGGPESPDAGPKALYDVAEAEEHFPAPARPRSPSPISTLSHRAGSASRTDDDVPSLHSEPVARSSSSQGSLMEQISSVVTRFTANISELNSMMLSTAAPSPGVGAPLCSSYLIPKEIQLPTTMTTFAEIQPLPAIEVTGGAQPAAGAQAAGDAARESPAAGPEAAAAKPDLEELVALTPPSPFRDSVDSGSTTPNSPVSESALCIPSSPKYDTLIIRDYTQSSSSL
# mGluR4a, sequence (Q14833 33-912): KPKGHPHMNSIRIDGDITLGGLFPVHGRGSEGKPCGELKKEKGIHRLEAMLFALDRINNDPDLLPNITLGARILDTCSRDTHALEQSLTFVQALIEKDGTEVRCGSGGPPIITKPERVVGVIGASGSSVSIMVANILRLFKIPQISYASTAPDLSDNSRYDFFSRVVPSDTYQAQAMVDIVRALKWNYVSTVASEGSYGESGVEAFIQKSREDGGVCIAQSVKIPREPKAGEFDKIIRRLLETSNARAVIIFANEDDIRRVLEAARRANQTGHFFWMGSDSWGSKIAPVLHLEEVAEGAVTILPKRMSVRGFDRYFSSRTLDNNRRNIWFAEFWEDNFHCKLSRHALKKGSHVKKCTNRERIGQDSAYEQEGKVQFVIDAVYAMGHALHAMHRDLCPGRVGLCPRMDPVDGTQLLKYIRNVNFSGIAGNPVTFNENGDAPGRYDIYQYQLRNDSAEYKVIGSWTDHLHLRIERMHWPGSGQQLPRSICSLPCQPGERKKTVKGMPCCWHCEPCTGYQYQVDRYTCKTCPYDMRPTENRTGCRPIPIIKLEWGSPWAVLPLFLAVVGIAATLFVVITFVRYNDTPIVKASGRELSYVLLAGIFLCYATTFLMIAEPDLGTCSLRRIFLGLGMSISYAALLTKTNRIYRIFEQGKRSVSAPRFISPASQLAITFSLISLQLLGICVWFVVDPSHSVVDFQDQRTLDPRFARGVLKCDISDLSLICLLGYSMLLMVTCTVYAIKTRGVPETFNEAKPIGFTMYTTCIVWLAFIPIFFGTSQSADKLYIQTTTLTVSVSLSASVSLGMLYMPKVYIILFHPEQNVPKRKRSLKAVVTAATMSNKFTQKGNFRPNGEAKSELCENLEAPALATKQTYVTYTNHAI
# mGluR4, sequence (Q14833 33-912): as above
molecule,measurement,setting,value
"N[C@@H](CCP(=O)(O)O)C(=O)O [L-AP4, L-(+)-2-amino-4-phosphonobutyric acid]","concentrations activating mGluR7 relative to those activating mGluRs 4, 6, and 8",mGluR7 [1],2-3 orders of magnitude
"5-Methyl-3,6-diphenylisoxazolo[4,5-e]pyridin-4(5H)-one [MDIP]",IC50,rat mGluR7 [2],0.099 µM
same,IC50,"rat mGluR7 [3]; CHO cells coexpressing rat mGluR7 with G15, read-out: IC50, inhibition of L-AP4-induced intracellular Ca2+ mobilization",0.02 µM
same,inhibition of the L-AP4-induced cAMP response,mGluR7 [4],inhibited
"N[C@@H](C(=O)O)c1ccc(P(=O)(O)O)cc1 (racemic) [(+)-PPG, (R,S)-phosphonophenylglycine]",EC50,human mGluR7b,48 µM
same,EC50,mGluR4a,3.2 µM
"COc1ccc(-c2cc3onc(-c4ccncc4)c3c(=O)n2C)cc1 [MMPIP, 6-(4-methoxyphenyl)-5-methyl-3-pyridin-4-ylisoxazolo[4,5-c]pyridin-4(5H)-one]",effect on mGluR2,mGluR2,no significant effect
same,effect on mGluR8,mGluR8 [5],no significant effect
same,IC50,rat mGluR7 [2],0.22 µM
same,maximal response in agonist concentration-response curves in the presence of the compound,rat mGluR7 [3],reduced
same,reversibility of antagonism,rat mGluR7 [3],reversible
same,inhibition of the L-AP4-induced cAMP response,mGluR7 [4],inhibited
same,antagonism of AMN082-induced inhibition of cAMP accumulation,mGluR7 [6],able to antagonize
same,effect on mGluR1,mGluR1,no significant effect
same,forskolin-stimulated cAMP levels in the absence of agonists (inverse agonistic activity),mGluR7 [7],further increase
same,effect on mGluR5,mGluR5,no significant effect
same,displacement of [3H]LY341495 bound to mGluR7,mGluR7 [8],did not displace
same,effect on mGluR3,mGluR3,no significant effect
same,effect on mGluR4,mGluR4,no significant effect
"N[C@H](C(=O)O)C1[C@H](C(=O)O)[C@H]1C(=O)O (stereo partly drawn) [DCG-IV, (2S,1'S,2'S)-2-(dicarboxycyclopropyl)glycine]",IC50,mGluR7 [9],40.1 µM
same,IC50,mGluR8 [10],32 µM
same,IC50,mGluR6,39.6 µM
"Cl.Cl.c1ccc(C(NCCNC(c2ccccc2)c2ccccc2)c2ccccc2)cc1 [AMN082, N,N′-dibenzhydryl-ethane-1,2-diamine dihydrochloride]",activation of mGluR7,mGluR7 [11],fully activating
same,hearing threshold left ear,presbycusis; [13],40 decibels
same,hearing threshold right ear,presbycusis; [13],35 decibels
same,hearing threshold left ear,"presbycusis; Example 4: person, oral 2 ug 4 times per day, baseline 35 decibel, above 1000 Hz",25 decibels
same,hearing threshold right ear,"presbycusis; Example 4: person, oral 2 ug 4 times per day, baseline 40 decibel, above 1000 Hz",35 decibels
same,hearing in both ears,"presbycusis; Example 5: person, cochlear osmotic pump 10 ug/hour, after 10 days",improved
same,oral activity,"mGluR7 [12]; in vivo, po",orally active
same,blood-brain barrier penetration,mGluR7 [12]; in vivo,penetrate the blood-brain barrier
same,increase in stress hormone levels in mGluR7 knockout animals,mGluR7 [12]; mGluR7 knockout animals,absent
same,stress hormone levels,mGluR7 [12]; wild-type animals,robust increase
